Laboratory results published in patent US11767320B2, “Bicyclic dione compounds as inhibitors of KRAS” (INCYTE CORPORATION, priority 2020, dated 2023).

What was measured:
[1] = target: KRAS G12C (Homo sapiens, UniProt P01116, G12C); assay: GDP-GTP exchange assay (fluorescence based guanine nucleotide exchange, bodipy-GDP for GppNHp, SOS1); format: biochemical; conditions: bodipy-loaded KRAS G12C, 2 hours pre-incubation with inhibitor, read-out: G12C_exchange (KRAS_G12C exchange assay IC50)
Outline: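 Bodipy-GDP-loaded KRAS G12C (5-25 nM final) pre-incubated 2 h with inhibitor in Hepes pH 7.5, MgCl2 buffer, then exchange started with 500 uM GppNHp and 150 nM SOS1 for 2 h at ambient temperature. G12D and G12V used 2.5 nM protein, with 4 h and 3 h exchange respectively. Fluorescence read at 485/520 nm; IC50 from four-parameter logistic fit.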

[2] = tested on: MIA PaCa-2 (KRAS G12C) cells; assay: Cellular pERK HTRF assay; format: cell-based; conditions: Homo sapiens; MIA PaCa-2 cells, 4 hours, phospho-ERK 1/2 HTRF; read-out: G12C_pERK (KRAS_G12C pERK assay IC50)
Experimental: MIA PaCa-2 (KRAS G12C; ATCC® CRL-1420), A427 (KRAS G12D; ATCC® HTB53), HPAF-II (KRAS G12D; ATCC® CRL-1997) and NCI-H838 (KRAS WT; ATCC® CRL-5844) cells are purchased from ATCC and maintained in RPMI 1640 media supplemented with 10% FBS (Gibco/Life Technologies). The cells are plated at 5000 cells per well (8 uL) into Greiner 384-well low volume, flat-bottom, tissue culture treated white plates and incubated overnight at 37° C. 5% CO2. The next morning, test compound stock solutions are diluted in media at 3× the final concentration, and 4 uL are added to the cells. The plate is mixed by gentle rotation for 30 seconds (250 rpm) at room temperature. The cells are incubated with the KRAS G12C and G12D compounds for 4 hours or 2 hours respectively at 37° C., 5% CO2.
4 uL of 4× lysis buffer with blocking reagent (1:25) (Cisbio) are added to each well and plates are rotated gently (300 rpm) for 30 minutes at room temperature. 4 uL per well of Cisbio anti Phospho-ERK 1/2 d2 is mixed with anti Phospho-ERK 1/2 Cryptate (1:1) are added to each well, mixed by rotation and incubated overnight in the dark at room temperature. Plates are read on the Pherastar plate reader at 665 nm and 620 nm wavelengths. IC50 determination is performed by fitting the curve of inhibitor percent inhibition versus the log of the inhibitor concentration using the GraphPad Prism 7 software.

[3] = tested on: MIA PaCa-2 cells (KRAS G12C); assay: Whole blood pERK1/2 HTRF assay; format: cell-based; conditions: Homo sapiens, compound in whole blood, 4 hours, phospho-ERK 1/2 HTRF, read-out: G12C_WB_pERK assay IC50
Experimental: MIA PaCa-2 cells (KRAS G12C; ATCC® CRL-1420) and HPAF-II (KRAS G12D; ATCC® CRL-1997) are maintained in RPMI 1640 with 10% FBS (Gibco/Life Technologies). The cells are seeded into 96 well tissue culture plates (Corning #3596) at 25000 cells per well in 100 uL media and cultured for 2 days at 37° C. 5% CO2 so that they are approximately 80% confluent at the start of the assay. Whole Blood are added to the 1 uL dots of compounds (prepared in DMSO) in 96 well plates and mixed gently by pipetting up and down so that the concentration of the compound in blood is 1× of desired concentration. The media is aspirated from the cells and 50 uL per well of whole blood with G12C or G12D compound is added and incubated for 4 or 2 hours respectively at 37° C. 5% CO2. After dumping the blood, the plates are gently washed twice by adding PBS to the side of the wells and dumping the PBS from the plate onto a paper towel, tapping the plate to drain well. 50 ul/well of 1× lysis buffer #1 (Cisbio) with blocking reagent (1:25) (Cisbio) is then added and incubated at room temperature for 30 minutes with shaking (250 rpm). Following lysis, 16 uL of lysate is transferred into 384-well Greiner small volume white plate using an Assist Plus (Integra Biosciences, NH). 4 uL of 1:1 mixture of anti Phospho-ERK 1/2 d2 and anti Phospho-ERK 1/2 Cryptate (Cisbio) is added to the wells using the Assist Plus and incubated at room temperature overnight in the dark. Plates are read on the Pherastar plate reader at 665 nm and 620 nm wavelengths. IC50 determination is performed by fitting the curve of inhibitor percent inhibition versus the log of the inhibitor concentration using the GraphPad Prism 7 software.

KRAS G12C, sequence (P01116 1-188 isoform P01116-2 G12C): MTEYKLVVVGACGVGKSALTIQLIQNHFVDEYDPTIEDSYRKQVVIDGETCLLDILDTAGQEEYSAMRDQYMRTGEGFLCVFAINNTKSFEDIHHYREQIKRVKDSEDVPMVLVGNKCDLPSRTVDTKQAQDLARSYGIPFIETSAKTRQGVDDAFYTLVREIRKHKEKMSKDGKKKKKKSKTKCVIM

IC50 [1] [nM] | IC50 [2] [nM] | IC50 [3] [nM] | Compound
≤ 100 | ≤ 100 | ≤ 100 | C=CC(=O)N1CC(F)(Cn2c(=O)c(=O)n(-c3c(C)ccnc3C(C)C)c3nc(-c4c(O)cccc4Cl)c(Cl)cc32)C1 [Example 56, 1-((1-acryloyl-3-fluoroazetidin-3-yl)methyl)-7-chloro-6-(2-chloro-6-hydroxyphenyl)-4-(2-isopropyl-4-methylpyridin-3-yl)-1,4-dihydropyrido[2,3-b]pyrazine-2,3-dione]
≤ 100 | ≤ 100 | ≤ 100 | C=CC(=O)N1CC(F)(Cn2c(=O)c(=O)n(-c3c(C)ccnc3C(C)C)c3nc(-c4c(Cl)cccc4OC)c(Cl)cc32)C1 [Example 57, 1-((1-acryloyl-3-fluoroazetidin-3-yl)methyl)-7-chloro-6-(2-chloro-6-methoxyphenyl)-4-(2-isopropyl-4-methylpyridin-3-yl)-1,4-dihydropyrido[2,3-b]pyrazine-2,3-dione]
≤ 100 | ≤ 100 | 100 to 1000 | C=CC(=O)N1CC(F)(Cn2c(=O)c(=O)n(-c3c(C)ccnc3C(C)C)c3nc(-c4c(C)cccc4OC)c(Cl)cc32)C1 [Example 58, 1-((1-acryloyl-3-fluoroazetidin-3-yl)methyl)-7-chloro-4-(2-isopropyl-4-methylpyridin-3-yl)-6-(2-methoxy-6-methylphenyl)-1,4-dihydropyrido[2,3-b]pyrazine-2,3-dione]
≤ 100 | ≤ 100 | 100 to 1000 | C=CC(=O)N1CC(F)(Cn2c(=O)c(=O)n(-c3c(C)ccnc3C(C)C)c3nc(-c4c(Cl)cccc4CO)c(Cl)cc32)C1 [Example 59, 1-((1-acryloyl-3-fluoroazetidin-3-yl)methyl)-7-chloro-6-(2-chloro-6-(hydroxymethyl)phenyl)-4-(2-isopropyl-4-methylpyridin-3-yl)-1,4-dihydropyrido[2,3-b]pyrazine-2,3-dione]
≤ 100 | ≤ 100 | ≤ 100 | C=CC(=O)N1CC(F)(Cn2c(=O)c(=O)n(-c3c(C(C)C)ccnc3C(C)C)c3nc(-c4c(Cl)cccc4OC)c(Cl)cc32)C1 [Example 62, 1-((1-acryloyl-3-fluoroazetidin-3-yl)methyl)-7-chloro-6-(2-chloro-6-methoxyphenyl)-4-(2,4-diisopropylpyridin-3-yl)-1,4-dihydropyrido[2,3-b]pyrazine-2,3-dione]
≤ 100 | ≤ 100 | ≤ 100 | C=CC(=O)N1CC(F)(Cn2c(=O)c(=O)n(-c3c(C(C)C)ccnc3C(C)C)c3nc(-c4c(C)cccc4OC)c(Cl)cc32)C1 [Example 63]

The next lines start with the molecule.

Compound | IC50 [1] [nM] | IC50 [2] [nM] | IC50 [3] [nM]
C=CC(=O)N1CC(O)(Cn2c(=O)c(=O)n(-c3c(C)ccnc3C(C)C)c3nc(-c4c(O)cccc4F)c(Cl)cc32)C1 [Example 42, 1-((1-acryloyl-3-hydroxyazetidin-3-yl)methyl)-7-chloro-6-(2-fluoro-6-hydroxyphenyl)-4-(2-isopropyl-4-methylpyridin-3-yl)-1,4-dihydropyrido[2,3-b]pyrazine-2,3-dione] | ≤ 100 | 100 to 1000 | 
C=CC(=O)N1CC(O)(Cn2c(=O)c(=O)n(-c3c(C)ccnc3C(C)C)c3nc(-c4c(O)ccc(F)c4F)c(Cl)cc32)C1 [Example 45, 1-((1-acryloyl-3-hydroxyazetidin-3-yl)methyl)-7-chloro-6-(5,6-difluoro-2-hydroxyphenyl)-4-(2-isopropyl-4-methylpyridin-3-yl)-1,4-dihydropyrido[2,3-b]pyrazine-2,3-dione] | ≤ 100 | 1000 to 5000 | 
[2H]C([2H])(n1c(=O)c(=O)n(-c2c(C)ccnc2C(C)C)c2nc(-c3c(F)ccc(C)c3O)c(Cl)cc21)C1(F)CN(C(=O)C=C)C1 [Example 47, 1-((1-acryloyl-3-fluoroazetidin-3-yl)methyl-d2)-7-chloro-6-(6-fluoro-2-hydroxy-3-methylphenyl)-4-(2-isopropyl-4-methylpyridin-3-yl)-1,4-dihydropyrido[2,3-b]pyrazine-2,3-dione] | ≤ 100 | ≤ 100 | 
[2H]C([2H])(n1c(=O)c(=O)n(-c2c(C)ccnc2C(C)C)c2nc(-c3cccc(Cl)c3Cl)c(Cl)cc21)C1(F)CN(C(=O)C=C)C1 [Example 51, 1-((1-acryloyl-3-fluoroazetidin-3-yl)methyl-d2)-7-chloro-6-(2,3-dichlorophenyl)-4-(2-isopropyl-4-methylpyridin-3-yl)-1,4-dihydropyrido[2,3-b]pyrazine-2,3-dione] | ≤ 100 | ≤ 100 | 
C=CC(=O)N1CC(F)(Cn2c(=O)c(=O)n(-c3c(C)ccnc3C(C)C)c3nc(-c4c(Cl)ccc5c4OCO5)c(Cl)cc32)C1 [Example 60, 1-((1-acryloyl-3-fluoroazetidin-3-yl)methyl)-7-chloro-6-(5-chlorobenzo[d][1,3]dioxol-4-yl)-4-(2-isopropyl-4-methylpyridin-3-yl)-1,4-dihydropyrido[2,3-b]pyrazine-2,3-dione] | ≤ 100 | ≤ 100 | 100 to 1000
C=CC(=O)N1CC(F)(Cn2c(=O)c(=O)n(-c3c(C(C)C)ccnc3C(C)C)c3nc(-c4c(O)cccc4Cl)c(Cl)cc32)C1 [Example 61, 1-((1-acryloyl-3-fluoroazetidin-3-yl)methyl)-7-chloro-6-(2-chloro-6-hydroxyphenyl)-4-(2,4-diisopropylpyridin-3-yl)-1,4-dihydropyrido[2,3-b]pyrazine-2,3-dione] | ≤ 100 | ≤ 100 | ≤ 100
C=C(F)C(=O)N1CC(F)(Cn2c(=O)c(=O)n(-c3c(C(C)C)ccnc3C(C)C)c3nc(-c4c(O)cccc4Cl)c(Cl)cc32)C1 [Example 64, 7-chloro-6-(2-chloro-6-hydroxyphenyl)-4-(2,4-diisopropylpyridin-3-yl)-1-((3-fluoro-1-(2-fluoroacryloyl)azetidin-3-yl)methyl)-1,4-dihydropyrido[2,3-b]pyrazine-2,3-dione] | ≤ 100 | ≤ 100 | 100 to 1000
